# According to US7960164B2, “Selective growth medium for Listeria spp” (Paradigm Diagnostics, Inc., priority 2004, dated 2011):
# What was measured:
# Bacillus spp. = test: Inhibition of Bacillus spp. by acriflavin; assay type: cell-based
# L. monocytogenes = test: Effect of acriflavin on hemolytic activity of L. monocytogenes; assay type: cell-based
substance,measurement,setting,value
Acriflavin,Inhibition of Bacillus spp.,Bacillus spp.,consistently inhibits all of the Bacillus spp.
same,Effect on hemolytic activity of L. monocytogenes,L. monocytogenes,inhibits the hemolytic activity of L. monocytogenes
